Results reported in patent publication US12503438B2, “Compounds for the treatment of kinase-dependent disorders” (Exelixis, Inc., priority 2019, dated 2025).

How the values were obtained:
AXL = molecular target: T1, AXL (Homo sapiens, UniProt P30530); assay: AXL autophosphorylation ELISA in A-172 cells; assay type: cell-based; conditions: cellular activity, Gas6-stimulated, phospho-AXL ELISA
T1 construct: endogenous in cells; host or cells: A-172 glioblastoma cells (ATCC #CRL-1620)
T1 sequence (P30530 26-894): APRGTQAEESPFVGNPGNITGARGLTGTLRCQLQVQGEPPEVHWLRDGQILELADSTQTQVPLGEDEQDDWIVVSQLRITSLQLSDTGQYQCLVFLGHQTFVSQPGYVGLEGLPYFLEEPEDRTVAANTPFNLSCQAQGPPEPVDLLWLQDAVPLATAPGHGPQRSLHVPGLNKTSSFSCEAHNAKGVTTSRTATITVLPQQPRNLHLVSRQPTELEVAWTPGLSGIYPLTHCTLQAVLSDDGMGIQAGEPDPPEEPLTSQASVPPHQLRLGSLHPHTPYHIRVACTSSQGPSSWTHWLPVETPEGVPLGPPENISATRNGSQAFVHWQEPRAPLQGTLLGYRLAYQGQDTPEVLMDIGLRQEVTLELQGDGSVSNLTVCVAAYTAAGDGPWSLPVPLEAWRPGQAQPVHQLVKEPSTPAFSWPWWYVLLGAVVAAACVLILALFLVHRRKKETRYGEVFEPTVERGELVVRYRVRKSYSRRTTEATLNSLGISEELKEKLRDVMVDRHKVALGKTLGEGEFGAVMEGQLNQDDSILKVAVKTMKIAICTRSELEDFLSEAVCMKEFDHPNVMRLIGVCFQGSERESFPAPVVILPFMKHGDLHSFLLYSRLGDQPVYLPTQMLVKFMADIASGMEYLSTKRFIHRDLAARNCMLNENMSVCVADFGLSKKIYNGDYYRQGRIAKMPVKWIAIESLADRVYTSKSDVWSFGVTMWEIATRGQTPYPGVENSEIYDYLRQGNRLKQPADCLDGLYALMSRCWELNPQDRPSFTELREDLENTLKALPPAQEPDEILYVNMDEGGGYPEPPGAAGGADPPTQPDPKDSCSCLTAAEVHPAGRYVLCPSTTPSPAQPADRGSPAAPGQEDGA
Method in brief: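 Serum-starved (24 h) A-172 glioblastoma cells got an 8-point compound series (0.3% DMSO) for 1 h, then 1 μg/mL human Gas6 for 15 min. Lysate phospho-AXL quantified by ELISA against phospho-AXL standard, normalized to DMSO and reference-inhibitor controls; IC50 by 4-parameter logistic fit.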

Met = Met (Homo sapiens, UniProt P08581); assay: Met autophosphorylation ELISA in PC-3 cells; assay type: cell-based; design: endogenous in cells; host or cells: PC-3 prostate cancer cells (ATCC #CRL-1435); conditions: cellular activity, HGF-stimulated, phospho-Met ELISA, read-out: c-Met IC50
Method in brief: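 PC-3 cells serum-starved 3 h, treated 1 h with 8-point compound series (0.3% DMSO), then stimulated with 100 ng/mL human HGF for 10 min. Lysate phospho-Met (panTyr) measured by sandwich ELISA; IC50 from 4-parameter logistic fit against DMSO and reference-inhibitor controls.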

Met, sequence (P08581 25-1390): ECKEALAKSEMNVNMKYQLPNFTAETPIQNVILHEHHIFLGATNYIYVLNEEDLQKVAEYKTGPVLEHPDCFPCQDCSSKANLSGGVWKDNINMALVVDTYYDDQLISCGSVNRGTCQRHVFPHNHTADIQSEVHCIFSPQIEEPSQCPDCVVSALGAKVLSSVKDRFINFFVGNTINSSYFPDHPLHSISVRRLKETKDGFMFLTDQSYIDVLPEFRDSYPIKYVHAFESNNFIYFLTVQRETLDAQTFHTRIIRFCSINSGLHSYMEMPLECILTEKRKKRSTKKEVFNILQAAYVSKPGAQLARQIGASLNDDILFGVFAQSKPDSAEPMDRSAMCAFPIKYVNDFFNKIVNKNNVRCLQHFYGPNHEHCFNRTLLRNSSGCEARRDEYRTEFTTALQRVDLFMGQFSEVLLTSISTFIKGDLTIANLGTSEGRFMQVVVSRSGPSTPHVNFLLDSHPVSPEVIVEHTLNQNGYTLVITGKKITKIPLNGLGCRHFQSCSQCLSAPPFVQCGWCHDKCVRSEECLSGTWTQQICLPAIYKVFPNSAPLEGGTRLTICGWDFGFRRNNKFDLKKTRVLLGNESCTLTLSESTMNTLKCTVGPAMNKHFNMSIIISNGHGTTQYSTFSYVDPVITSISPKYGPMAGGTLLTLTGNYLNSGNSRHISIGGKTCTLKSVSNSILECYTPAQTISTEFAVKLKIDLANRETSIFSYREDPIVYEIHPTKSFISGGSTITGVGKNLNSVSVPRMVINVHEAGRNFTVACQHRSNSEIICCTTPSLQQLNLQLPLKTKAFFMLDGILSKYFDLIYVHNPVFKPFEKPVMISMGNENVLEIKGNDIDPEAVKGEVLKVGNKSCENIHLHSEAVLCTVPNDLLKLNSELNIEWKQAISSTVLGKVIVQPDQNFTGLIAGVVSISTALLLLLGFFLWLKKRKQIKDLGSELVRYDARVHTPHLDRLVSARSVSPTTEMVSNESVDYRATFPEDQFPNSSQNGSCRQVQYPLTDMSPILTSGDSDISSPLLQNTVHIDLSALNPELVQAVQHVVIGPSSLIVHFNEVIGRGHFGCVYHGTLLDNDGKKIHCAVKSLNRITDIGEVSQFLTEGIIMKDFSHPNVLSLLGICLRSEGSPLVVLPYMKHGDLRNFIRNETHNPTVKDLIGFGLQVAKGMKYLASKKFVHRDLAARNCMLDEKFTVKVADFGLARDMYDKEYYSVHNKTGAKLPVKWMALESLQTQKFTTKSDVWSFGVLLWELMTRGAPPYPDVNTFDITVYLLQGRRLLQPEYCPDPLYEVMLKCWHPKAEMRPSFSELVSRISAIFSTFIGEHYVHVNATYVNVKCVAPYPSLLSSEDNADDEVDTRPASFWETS

IC50 (AXL)	IC50 (Met)	Structure (SMILES)
10 to 100 nM	10 to 100 nM	Cc1cc(-c2ccc3c(Oc4ccc(NC(=O)C5(C(=O)Nc6ccc(F)cc6)CC5)cc4)ccnc3c2)nn1C [Compound 101, 1-N-[4-[7-(1,5-Dimethylpyrazol-3-yl)quinolin-4-yl]oxyphenyl]-1-N′-(4-fluorophenyl)cyclopropane-1,1-dicarboxamide]
10 to 100 nM	100 to 300 nM	Cc1cc2c(Oc3ccc(NC(=O)C4(C(=O)Nc5ccc(F)cc5)CC4)cc3)ccnc2cc1-c1cc[nH]n1 [Compound 107, 1-N′-(4-Fluorophenyl)-1-N-[4-[6-methyl-7-(1H-pyrazol-3-yl)quinolin-4-yl]oxyphenyl]cyclopropane-1,1-dicarboxamide]
10 to 100 nM	10 to 100 nM	Nc1cc(-c2ccc3c(Oc4ccc(NC(=O)C5(C(=O)Nc6ccc(F)cc6)CC5)cc4)ccnc3c2)ccn1 [Compound 97, 1-N-[4-[7-(2-Aminopyridin-4-yl)quinolin-4-yl]oxyphenyl]-1-N′-(4-fluorophenyl)cyclopropane-1,1-dicarboxamide]
10 to 100 nM	10 to 100 nM	O=C(Nc1ccc(F)cc1)C1(C(=O)Nc2ccc(Oc3ccnc4cc(-c5ccn(C6CC6)n5)ccc34)cc2)CC1 [Compound 98, 1-N-[4-[7-(1-Cyclopropylpyrazol-3-yl)quinolin-4-yl]oxyphenyl]-1-N′-(4-fluorophenyl)cyclopropane-1,1-dicarboxamide]
10 to 100 nM	10 to 100 nM	O=C(Nc1ccc(F)cc1)C1(C(=O)Nc2ccc(Oc3ccnc4cc(-c5ccn(CF)n5)ccc34)cc2)CC1 [Compound 102, 1-N-[4-[7-[1-(Fluoromethyl)pyrazol-3-yl]quinolin-4-yl]oxyphenyl]-1-N′-(4-fluorophenyl)cyclopropane-1,1-dicarboxamide]
10 to 100 nM	10 to 100 nM	Cc1cc2c(Oc3cc(F)c(NC(=O)C4(C(=O)Nc5ccc(F)cc5)CC4)cc3F)ccnc2cc1-c1cnn(C)c1 [Compound 105, 1-N′-[2,5-Difluoro-4-[6-methyl-7-(1-methylpyrazol-4-yl)quinolin-4-yl]oxyphenyl]-1-N-(4-fluorophenyl)cyclopropane-1,1-dicarboxamide]
10 to 100 nM	10 to 100 nM	Cc1cc(-c2ccc3c(Oc4ccc(NC(=O)C5(C(=O)Nc6ccc(F)cc6)CC5)cc4)ccnc3c2)n[nH]1 [Compound 99, 1-N′-(4-Fluorophenyl)-1-N-[4-[7-(5-methyl-1H-pyrazol-3-yl)quinolin-4-yl]oxyphenyl]cyclopropane-1,1-dicarboxamide]
100 to 300 nM	100 to 300 nM	O=C(Nc1ccc(F)cc1)C1(C(=O)Nc2ccc(Oc3ccnc4cc(-c5cc6ccccn6n5)ccc34)cc2)CC1 [Compound 104, 1-N′-(4-Fluorophenyl)-1-N-[4-(7-pyrazolo[1,5-a]pyridin-2-ylquinolin-4-yl)oxyphenyl]cyclopropane-1,1-dicarboxamide]
10 to 100 nM	100 to 300 nM	Cc1cc2c(Oc3ccc(NC(=O)C4(C(=O)Nc5ccc(F)cc5)CC4)cc3)ccnc2cc1-c1ccn(C)n1 [Compound 108, 1-N′-(4-Fluorophenyl)-1-N-[4-[6-methyl-7-(1-methylpyrazol-3-yl)quinolin-4-yl]oxyphenyl]cyclopropane-1,1-dicarboxamide]

Further lines, the compound ahead of its results:

Structure (SMILES)	IC50 (AXL)	IC50 (Met)
CC(=O)N1CCC(c2ccc3c(Oc4ccc(NC(=O)C5(C(=O)Nc6ccc(F)cc6)CC5)cc4)ccnc3c2)C1 (stereo not drawn) [Compound 92, 1-N-[4-[7-(1-Acetylpyrrolidin-3-yl)quinolin-4-yl]oxyphenyl]-1-N′-(4-fluorophenyl)cyclopropane-1,1-dicarboxamide]	10 to 100 nM	10 to 100 nM
Cc1ccn(-c2ccc3c(Oc4ccc(NC(=O)C5(C(=O)Nc6ccc(F)cc6)CC5)cc4)ccnc3c2)n1 [Compound 91, 1-N′-(4-Fluorophenyl)-1-N-[4-[7-(3-methylpyrazol-1-yl)quinolin-4-yl]oxyphenyl]cyclopropane-1,1-dicarboxamide]	100 to 300 nM	10 to 100 nM
CS(=O)(=O)N1CCC(c2ccc3c(Oc4ccc(NC(=O)C5(C(=O)Nc6ccc(F)cc6)CC5)cc4)ccnc3c2)C1 (stereo not drawn) [Compound 93, 1-N′-(4-Fluorophenyl)-1-N-[4-[7-(1-methylsulfonylpyrrolidin-3-yl)quinolin-4-yl]oxyphenyl]cyclopropane-1,1-dicarboxamide]	100 to 300 nM	10 to 100 nM
O=C(Nc1ccc(F)cc1)C1(C(=O)Nc2ccc(Oc3ccnc4cc(-c5ccccc5)ccc34)cc2)CC1 [Compound 55, 1-N′-(4-Fluorophenyl)-1-N-[4-(7-phenylquinolin-4-yl)oxyphenyl]cyclopropane-1,1-dicarboxamide]	100 to 300 nM	100 to 300 nM
Cc1cnn(-c2ccc3c(Oc4ccc(NC(=O)C5(C(=O)Nc6ccc(F)cc6)CC5)cc4)ccnc3c2)c1 [Compound 96, 1-N′-(4-Fluorophenyl)-1-N-[4-[7-(4-methylpyrazol-1-yl)quinolin-4-yl]oxyphenyl]cyclopropane-1,1-dicarboxamide]	100 to 300 nM	10 to 100 nM
O=C(Nc1ccc(F)cc1)C1(C(=O)Nc2ccc(Oc3ccnc4cc(C5=CCOC5)ccc34)cc2)CC1 [Compound 95, 1-N-[4-[7-(2,5-Dihydrofuran-3-yl)quinolin-4-yl]oxyphenyl]-1-N′-(4-fluorophenyl)cyclopropane-1,1-dicarboxamide]	10 to 100 nM	10 to 100 nM
O=C(Nc1ccc(F)cc1)C1(C(=O)Nc2ccc(Oc3ccnc4cc(-c5cnn(CF)c5)ccc34)cc2)CC1 [Compound 94, 1-N-[4-[7-[1-(Fluoromethyl)pyrazol-4-yl]quinolin-4-yl]oxyphenyl]-1-N′-(4-fluorophenyl)cyclopropane-1,1-dicarboxamide]	≤ 10 nM	10 to 100 nM
Nc1n[nH]cc1-c1ccc2c(Oc3ccc(NC(=O)C4(C(=O)Nc5ccc(F)cc5)CC4)cc3)ccnc2c1 [Compound 90, 1-N-[4-[7-(3-Amino-1H-pyrazol-4-yl)quinolin-4-yl]oxyphenyl]-1-N′-(4-fluorophenyl)cyclopropane-1,1-dicarboxamide]	10 to 100 nM	10 to 100 nM
Cc1cn(-c2ccc3c(Oc4ccc(NC(=O)C5(C(=O)Nc6ccc(F)cc6)CC5)cc4)ccnc3c2)cn1 [Compound 87, 1-N′-(4-Fluorophenyl)-1-N-[4-[7-(4-methylimidazol-1-yl)quinolin-4-yl]oxyphenyl]cyclopropane-1,1-dicarboxamide]	≤ 10 nM	10 to 100 nM
